Molecular target: T1, human TREK-1 (Homo sapiens, UniProt O95069)
T1 construct: expressed in transfected cells
T1 sequence (O95069 1-426): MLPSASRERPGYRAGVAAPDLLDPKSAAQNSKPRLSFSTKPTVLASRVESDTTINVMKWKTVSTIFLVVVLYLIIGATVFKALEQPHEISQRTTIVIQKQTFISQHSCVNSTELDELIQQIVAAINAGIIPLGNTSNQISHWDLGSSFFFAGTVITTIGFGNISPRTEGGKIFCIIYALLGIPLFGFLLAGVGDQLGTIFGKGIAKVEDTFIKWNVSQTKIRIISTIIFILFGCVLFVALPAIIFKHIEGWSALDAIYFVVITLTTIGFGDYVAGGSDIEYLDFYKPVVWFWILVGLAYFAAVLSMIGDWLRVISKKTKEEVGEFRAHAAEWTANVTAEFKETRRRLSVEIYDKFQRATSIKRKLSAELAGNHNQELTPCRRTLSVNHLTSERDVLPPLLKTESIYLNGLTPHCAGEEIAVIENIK
Experiment: TREK-1 Thallium (Tl+) flux assay, Method 1
Format: cell-based
Details: TREK-1 Thallium (Tl+) flux assay, Method 1
In short: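 CHO-K1 cells stably expressing human TREK-1, loaded with Thallos dye, received compound or 0.3% DMSO vehicle for 10 min before thallium stimulus buffer. ΔRatio is fluorescence at 25 s after thallium addition over mean pre-addition fluorescence; % inhibition calculated from it.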

IC50 [nM]	Compound
2770	Cc1ccc(-n2cc(-c3cnc(NC(=O)c4c(Cl)cnn4C4CCN(C(=O)OC(C)(C)C)CC4)c(C)c3)cn2)cc1 [Compound 409, tert-butyl 4-(4-chloro-5-((3-methyl-5-(1-(p-tolyl)-1H-pyrazol-4-yl)pyridin-2-yl)carbamoyl)-1H-pyrazol-1-yl)piperidine-1-carboxylate]
6450	Cc1cc(OCc2ccccc2)ccc1NC(=O)c1c(Cl)cnn1CC1CN(C(=O)C2CC2)CCO1 (stereo not shown) [Compound 432, N-(4-(benzyloxy)-2-methylphenyl)-4-chloro-1-((4-(cyclopropanecarbonyl)morpholin-2-yl)methyl)-1H-pyrazole-5-carboxamide]

Same assay, conditions: TREK-1 Thallium (Tl+) flux assay; no *^12 (Method 2) mark on these rows

IC50 [nM]	Compound
910	4-chloro-1-[(2s,4r)-6-(cyclopropanecarbonyl)-6-azaspiro[3.4]octan-2-yl]-N-{5-[(4-fluorophenyl)ethynyl]-3-methylpyridin-2-yl}-1H-pyrazole-5-carboxamide or 4-chloro-1-[(2r,4s)-6-(cyclopropanecarbonyl)-6-azaspiro[3.4]octan-2-yl]-N-{5-[(4-fluorophenyl)ethynyl]-3-methylpyridin-2-yl}-1H-pyrazole-5-carboxamide [Compound 362]
480	Cc1cc(C#Cc2ccccc2)cnc1NC(=O)c1c(Cl)cnn1CC(C)(C)C#N [Compound 276, 4-chloro-1-(2-cyano-2-methylpropyl)-N-(3-methyl-5-(phenylethynyl)pyridin-2-yl)-1H-pyrazole-5-carboxamide]
530	CC(=O)N1CCC[C@H](Cn2ncc(Cl)c2C(=O)Nc2ncc(C#Cc3ccccc3)cc2C)C1 [Compound 296, (S)-1-((1-acetylpiperidin-3-yl)methyl)-4-chloro-N-(3-methyl-5-(phenylethynyl)pyridin-2-yl)-1H-pyrazole-5-carboxamide]
410	N#CCCCn1ncc(Cl)c1C(=O)Nc1c(F)cc(C#Cc2ccccc2)cc1F [Compound 253, 4-chloro-1-(3-cyanopropyl)-N-(2,6-difluoro-4-(phenylethynyl)phenyl)-1H-pyrazole-5-carboxamide]
430	CC(=O)N1CC[C@@H](n2ncc(Cl)c2C(=O)Nc2ncc(C#Cc3ccccc3)cc2C)C[C@@H]1C (single isomer, unassigned) [Compound 261, 1-[(2S,4R)-1-acetyl-2-methylpiperidin-4-yl]-4-chloro-N-[3-methyl-5-(phenylethynyl)pyridin-2-yl]-1H-pyrazole-5-carboxamide or 1-[(2R,4S)-1-acetyl-2-methylpiperidin-4-yl]-4-chloro-N-[3-methyl-5-(phenylethynyl)pyridin-2-yl]-1H-pyrazole-5-carboxamide]
770	CCC(=O)N1CCOC(Cn2ncc(Cl)c2C(=O)Nc2ncc(C#Cc3ccc(F)cc3)cc2C)C1 (stereo not shown) [Compound 347, 4-chloro-N-(5-((4-fluorophenyl)ethynyl)-3-methylpyridin-2-yl)-1-((4-propionylmorpholin-2-yl)methyl)-1H-pyrazole-5-carboxamide]
350	Cc1cc(C#Cc2ccccc2)cnc1NC(=O)c1c(Cl)cnn1CC1CCN(C(=O)C(C)C)CC1(F)F (stereo not shown) [Compound 231, 4-chloro-1-((3,3-difluoro-1-isobutyrylpiperidin-4-yl)methyl)-N-(3-methyl-5-(phenylethynyl)pyridin-2-yl)-1H-pyrazole-5-carboxamide]
740	COc1ccc(-c2cnc(NC(=O)c3c(Cl)cnn3C3CCN(C(=O)OC(C)(C)C)CC3)c(C)c2)cc1OC [Compound 384, tert-butyl 4-(4-chloro-5-((5-(3,4-dimethoxyphenyl)-3-methylpyridin-2-yl)carbamoyl)-1H-pyrazol-1-yl)piperidine-1-carboxylate]
540	Cc1cc(C#Cc2ccccc2)cnc1NC(=O)c1c(Cl)cnn1CC1(C)CCN(C(=O)OC(C)(C)C)CC1 [Compound 301, tert-butyl 4-((4-chloro-5-((3-methyl-5-(phenylethynyl)pyridin-2-yl)carbamoyl)-1H-pyrazol-1-yl)methyl)-4-methylpiperidine-1-carboxylate]
520	Cc1cc(C#Cc2ccccc2)cnc1NC(=O)c1c(Cl)cnn1[C@@H]1CC[C@@H](NC(=O)OC(C)(C)C)C1 [Compound 291, tert-butyl ((1R,3R)-3-(4-chloro-5-((3-methyl-5-(phenylethynyl)pyridin-2-yl)carbamoyl)-1H-pyrazol-1-yl)cyclopentyl)carbamate]

More lines, now with the values behind:

Compound	IC50 [nM]
Cc1cc(C#Cc2ccccc2)cnc1NC(=O)c1c(Cl)cnn1CC1(C#N)CCCC1 [Compound 242, 4-chloro-1-((1-cyanocyclopentyl)methyl)-N-(3-methyl-5-(phenylethynyl)pyridin-2-yl)-1H-pyrazole-5-carboxamide]	380
CC(=O)N1CCC(n2ncc(Cl)c2C(=O)Nc2ccc(OCc3ccccc3)cc2C)CC1 [Compound 388, 1-(1-acetylpiperidin-4-yl)-N-(4-(benzyloxy)-2-methylphenyl)-4-chloro-1H-pyrazole-5-carboxamide]	1050
Cc1cc(C#Cc2ccccc2)cnc1NC(=O)c1c(Cl)cnn1CC1CC1 [Compound 278, 4-chloro-1-(cyclopropylmethyl)-N-(3-methyl-5-(phenylethynyl)pyridin-2-yl)-1H-pyrazole-5-carboxamide]	490
Cc1cc(C#Cc2ccccc2)cnc1NC(=O)c1c(Cl)cnn1C1CC2(C1)CN(C(=O)C(C)C)C2 [Compound 212, 4-chloro-1-(2-isobutyryl-2-azaspiro[3.3]heptan-6-yl)-N-(3-methyl-5-(phenylethynyl)pyridin-2-yl)-1H-pyrazole-5-carboxamide]	330
Cc1cc(C#Cc2ccccc2)cnc1NC(=O)c1c(Cl)cnn1C[C@H]1CCCN(C(=O)C(C)C)C1 [Compound 263]	430
Cc1cc(C#Cc2ccccc2)cnc1NC(=O)c1c(Cl)cnn1C1CCCOC1 (stereo not shown) [Compound 327, 4-chloro-N-(3-methyl-5-(phenylethynyl)pyridin-2-yl)-1-(tetrahydro-2H-pyran-3-yl)-1H-pyrazole-5-carboxamide]	650
Cc1cc(C#Cc2ccccc2)cnc1NC(=O)c1c(Cl)cnn1[C@H]1C[C@@H]2CN(C(=O)OC(C)(C)C)C[C@@H]2C1 [Compound 329, tert-butyl (3aR,5s,6aS)-5-(4-chloro-5-{[3-methyl-5-(phenylethynyl)pyridin-2-yl]carbamoyl}-1H-pyrazol-1-yl)hexahydrocyclopenta[c]pyrrole-2(1H)-carboxylate]	650

Same assay, conditions: TREK-1 Thallium (Tl+) flux assay; values without footnote *12 are Method 1

IC50 [nM]	Compound
160	CCNC(=O)N1C[C@H]2C[C@H](n3ncc(Cl)c3C(=O)Nc3ncc(C#Cc4cccs4)cc3C)C[C@H]2C1 [Compound 74, (3aR,5s,6aS)-5-[4-chloro-5-({3-methyl-5-[(thiophen-2-yl)ethynyl]pyridin-2-yl}carbamoyl)-1H-pyrazol-1-yl]-N-ethylhexahydrocyclopenta[c]pyrrole-2(1H)-carboxamide]
230	CC(C)(C)OC(=O)N1CCC(Cn2ncc(Cl)c2C(=O)Nc2ncc(C#Cc3ccccc3)cc2F)CC1 [Compound 142, tert-butyl 4-((4-chloro-5-((3-fluoro-5-(phenylethynyl)pyridin-2-yl)carbamoyl)-1H-pyrazol-1-yl)methyl)piperidine-1-carboxylate]
160	CS(=O)(=O)N1CCC(n2ncc(Cl)c2C(=O)Nc2ncc(C#Cc3ccccc3)cc2F)CC1 [Compound 70, 4-chloro-N-(3-fluoro-5-(phenylethynyl)pyridin-2-yl)-1-(1-(methylsulfonyl)piperidin-4-yl)-1H-pyrazole-5-carboxamide]
270	N#CC1(Cn2ncc(Cl)c2C(=O)Nc2c(F)cc(C#Cc3ccccc3)cc2F)CC1 [Compound 168, 4-chloro-1-((1-cyanocyclopropyl)methyl)-N-(2,6-difluoro-4-(phenylethynyl)phenyl)-1H-pyrazole-5-carboxamide]
130	CC(=O)N1CCC(Cn2ncc(Cl)c2C(=O)Nc2ncc(C#Cc3ccccc3)cc2F)C1 (stereo not shown) [Compound 44, 1-((1-acetylpyrrolidin-3-yl)methyl)-4-chloro-N-(3-fluoro-5-(phenylethynyl)pyridin-2-yl)-1H-pyrazole-5-carboxamide]

The next lines start with the compound.

Compound	IC50 [nM]
Cc1cc(C#Cc2ccccc2)cnc1NC(=O)c1c(Cl)cnn1C1CCN(S(C)(=O)=O)CC1 [Compound 163, 4-chloro-N-(3-methyl-5-(phenylethynyl)pyridin-2-yl)-1-(1-(methylsulfonyl)piperidin-4-yl)-1H-pyrazole-5-carboxamide]	260
CCC(=O)N1CCC(n2ncc(Cl)c2C(=O)Nc2ncc(C#Cc3ccc(F)cc3)cc2C)CC1 [Compound 66, 4-chloro-N-(5-((4-fluorophenyl)ethynyl)-3-methylpyridin-2-yl)-1-(1-propionylpiperidin-4-yl)-1H-pyrazole-5-carboxamide]	150
Cc1cc(C#Cc2ccccc2)cc(F)c1NC(=O)c1c(Cl)cnn1[C@H]1CCOC1 [Compound 157, (S)-4-chloro-N-(2-fluoro-6-methyl-4-(phenylethynyl)phenyl)-1-(tetrahydrofuran-3-yl)-1H-pyrazole-5-carboxamide]	250
Cc1cc(C#Cc2cccs2)cnc1NC(=O)c1c(Cl)cnn1C1CCN(C(=O)C2CC2)CC1 [Compound 63, 4-chloro-1-(1-(cyclopropanecarbonyl)piperidin-4-yl)-N-(3-methyl-5-(thiophen-2-ylethynyl)pyridin-2-yl)-1H-pyrazole-5-carboxamide]	150

— patent publication US20240182445A1 (ONO PHARMACEUTICAL CO., LTD., priority 2019, published 2024)
